# In PMC11995503 (Molecular Cancer, 2025):
# How the values were obtained:
# KDR/VEGFR2 = assay: KDR inhibition; assay type: biochemical
# [1] = life-threatening side effects; cited from earlier work
# BP-CML = BP-CML cohort, cited from earlier work
smiles,measurement,setting,value
Cc1ccc(C(=O)Nc2ccc(CN3CCN(C)CC3)c(C(F)(F)F)c2)cc1C#Cc1cnc2cccnn12 [Ponatinib],KDR inhibition potency relative to KF1601,KDR/VEGFR2,tenfold greater
same,arterial obstruction,[1],33%
same,heart failure,[1],9%
same,thromboembolism,[1],6%
same,patients achieving a major cytological response,BP-CML; within six months,23%
same,median overall survival,BP-CML,seven
